Source: publication PMC9368227, “Investigation of Radiotracer Metabolic Stability In Vitro with CYP-Overexpressing Hepatoma Cell Lines” (Cells, 2022)

Columns and labels:
all utilized cell lines = test: Activity distribution between supernatant, wash and cells, summary over all utilized cell lines; assay type: in vitro ADME; conditions: end of incubation period (2 h); range over cell lines
Procedure: HepG2 cells were cultured in DMEM GlutaMax (Gibco, Paisley, UK) with 10% fetal calf serum (FCS) and with selective antibiotics (penicillin/streptomycin for wildtype, Zeocin (InvivoGen, San Diego, CA, USA) for CYP1A2, and Blasticidin (Gibco, Carlsbad, CA, USA) for CYP2C19 and CYP3A4 cultures). As a negative control, cultures of CHO cultivated in Ham’s F-12 medium (Gibco) with 10% FCS and 2 mM glutamine were added for the radiotracer experiments. Cells were handled under a laminar flow hood (Thermo Scientific^TM Safe 2020, Langenselbold, Germany) and were split once or twice a week by trypsinization. Cell cultures were stored horizontally in a humidified incubator (Heracell240i) at 37 °C and 5% CO2. […] Cell density was determined with a cell counter (CASY® Model TT from Schärfe System, Reutlingen, Germany). […]
Initially, CYP-overexpressing HepG2 and, as controls, HepG2 wildtype, as well as CHO (Chinese hamster ovary) cells, were incubated as an adhered monolayer in a 96-well plate with a relatively high activity concentration of [^18F]1 (25 MBq/mL; workflow according to Figure 1A, upper panel), and the supernatant and cell lysates were investigated by radio-TLC. […] As a result (Table 1), the main fraction of activity was found in the supernatant (64–91%), while only a negligible to low amount of activity was measured in cell lysates (1–16%). […]

HepG2 CYP1A2 = test: Radiotracer metabolic stability, CYP1A2-overexpressing HepG2 cells; assay type: in vitro ADME, human; conditions: radio-TLC
Procedure: (§1) CYP-overexpressing human hepatocellular carcinoma cells (HepG2) were previously generated on the basis of subcloning human CYP1A2 [18], CYP2C19 [20], and CYP3A4 [21] cDNA into a lentiviral expression vector. The cDNA expression in the resulting vector was controlled by the human cytomegalovirus (CMV) promoter. The lentivirus expression vectors were used to produce recombinant lentivirus particles according to standard methods to infect HepG2 cells. Infected cells were selected with 3 µg/mL blasticidin for CYP2C19 and CYP3A4 and 500 µg/mL zeocin for CYP1A2 overexpression 48 h after infection. Within 3–4 weeks, antibiotic-resistant cell colonies were picked to obtain single cell-derived HepG2 clones. For more detailed information on the generation procedure of CYP-overexpressing HepG2 cells, see Steinbrecht et al..
(§2) HepG2 cells were cultured in DMEM GlutaMax (Gibco, Paisley, UK) with 10% fetal calf serum (FCS) and with selective antibiotics (penicillin/streptomycin for wildtype, Zeocin (InvivoGen, San Diego, CA, USA) for CYP1A2, and Blasticidin (Gibco, Carlsbad, CA, USA) for CYP2C19 and CYP3A4 cultures). […] Cell density was determined with a cell counter (CASY® Model TT from Schärfe System, Reutlingen, Germany). […]
Incubations with radiotracer compounds were conducted, on the one hand, with radioactive ^18F-labeled compounds alone (time dependency) and, on the other hand, in the presence of 50 µM nonradioactive reference (carrier addition). For the investigation of a time-dependent metabolite formation, 2 µL aliquots were withdrawn from the supernatant, directly spotted onto the TLC plate, and analyzed as described above. […]
UPLC–MS analyses were performed to verify the degradation behavior of the test compounds and to gain insights into the identity of the formed metabolites. […] Additionally, incubations with the nonradioactive references were carried out with 100 nM or 50 µM (according to the carrier-added samples) and analyzed. UPLC–MS/MS was performed using System 2 (55% isocratic elution for quantification of intact compound, or 25–75% gradient for nonradioactive metabolite analysis). […]

[1] = system: murine liver microsomes (MLMs); test: Microsome assay, murine liver microsomes; assay type: in vitro ADME; conditions: 1 h incubation
Procedure: The stability of [^18F]1 toward liver microsomes was analyzed under oxidative conditions with MLMs (MSMCP, Lot: MS046-C) and HLMs (HMMCPL; Lot: PL050E-B) according to a previously described procedure. In brief, 12.5 µL of the respective microsomes (final 1 mg/mL) were mixed with 110.4 µL of PBS, followed by the addition of 100 µL of [^18F]1 (with 5 MBq and 1% ethanol; final 0.4% ethanol) and 2.1 µL of reference compound (final concentration 50 µM 1), or an equivalent of DMSO. The resulting mixture was mixed at 37 °C for 5 min, and the reaction was then initiated by the addition of 25 µL of NADPH (final 2 mM). After 1 h incubation, the resulting samples were mixed with ice-cold ACN (1/4, v/v) and vortexed for 30 s, placed on ice for 4 min, and finally centrifuged at 13,200 rpm for 5 min at 4 °C. The supernatant was separated and used for further analysis by radio-HPLC (6–10 µL injection volume; System 1b with 25–75% gradient elution) and radio-TLC analysis (2 µL applied on TLC, analysis as described above).

HepG2 CYP3A4 = test: Radiotracer metabolic stability, CYP3A4-overexpressing HepG2 cells; assay type: in vitro ADME, human; conditions: HepG2 CYP3A4, up to 2 h; radio-TLC
Procedure: as §1
as §2, with “cultures). As a negative control, cultures of CHO cultivated in Ham’s F-12 medium (Gibco) with 10% FCS and 2 mM glutamine were added for the radiotracer experiments.” for “cultures).”

HepG2 CYP2C19 = test: Radiotracer metabolic stability, CYP2C19-overexpressing HepG2 cells; assay type: in vitro ADME, human
Procedure: as §1
HepG2 cells were cultured in DMEM GlutaMax (Gibco, Paisley, UK) with 10% fetal calf serum (FCS) and with selective antibiotics (penicillin/streptomycin for wildtype, Zeocin (InvivoGen, San Diego, CA, USA) for CYP1A2, and Blasticidin (Gibco, Carlsbad, CA, USA) for CYP2C19 and CYP3A4 cultures). As a negative control, cultures of CHO cultivated in Ham’s F-12 medium (Gibco) with 10% FCS and 2 mM glutamine were added for the radiotracer experiments. Cells were handled under a laminar flow hood (Thermo Scientific^TM Safe 2020, Langenselbold, Germany) and were split once or twice a week by trypsinization. Cell cultures were stored horizontally in a humidified incubator (Heracell240i) at 37 °C and 5% CO2. During the time of experimental work, the utilized cell lines were regularly checked for mycoplasma. Cells were seeded in duplicates into a 96-well plate (CellStar®) with a density of 3 × 10^5 cells/well and cultured until the next day at 37 °C and 5% CO2. Cell density was determined with a cell counter (CASY® Model TT from Schärfe System, Reutlingen, Germany). Before the addition of substrates, cells were washed twice with Krebs–Henseleit buffer (KHB). The HEPES-supplemented Krebs–Henseleit buffer (pH 7.4, KHB) was freshly prepared using HEPES (5.95 g/L), D-glucose (2.0 g/L), magnesium sulfate (0.141 g/L), potassium dihydrogenphosphate (0.16 g/L), potassium chloride (0.35 g/L), sodium chloride (6.9 g/L), calcium chloride dihydrate (0.373 g/L), and sodium bicarbonate (2.1 g/L), followed by adjustment to pH 7.4 with NaOH. The utilized substances within this study were neither found (see Supplementary Materials, Figure S14) nor reported to be cytotoxic within the utilized concentration range and incubation duration.
Incubations with radiotracer compounds were conducted, on the one hand, with radioactive ^18F-labeled compounds alone (time dependency) and, on the other hand, in the presence of 50 µM nonradioactive reference (carrier addition). For the investigation of a time-dependent metabolite formation, 2 µL aliquots were withdrawn from the supernatant, directly spotted onto the TLC plate, and analyzed as described above. The same procedure was performed for carrier-added samples.
UPLC–MS analyses were performed to verify the degradation behavior of the test compounds and to gain insights into the identity of the formed metabolites. Using radiotracer incubation samples, 40 µL aliquots of the carrier-added incubations were withdrawn followed by addition of 160 µL of ACN and centrifugation (14,000 rpm (18,800–20,800× g), 4 °C, 5 min). Samples were frozen at −20 °C, and activity was allowed to decay before further mass-spectrometric analyses. Additionally, incubations with the nonradioactive references were carried out with 100 nM or 50 µM (according to the carrier-added samples) and analyzed. UPLC–MS/MS was performed using System 2 (55% isocratic elution for quantification of intact compound, or 25–75% gradient for nonradioactive metabolite analysis). The MRM mode was optimized with a solution of respective reference compounds diluted in eluent. […]

With `Cc1ccc(-c2cc(C[18F])nn2-c2ccc(S(C)(=O)=O)cc2)cc1` [[^18F]1, 3-([^18F]fluoromethyl)-1-[4-(methylsulfonyl)phenyl]-5-(p-tolyl)-1H-pyrazole] the “Fraction of activity in cell lysates” value (all utilized cell lines) was 1–16%, the “Fraction of activity in supernatant” value (all utilized cell lines) was 64–91% and the “Intact tracer in supernatant” value (HepG2 CYP1A2; 2 h incubation, 2–4 MBq/mL (28–187 nM)) was 14.6%. The “Metabolic turnover / stability of radiotracer (in words)” value (from here on “Metabolic turnover / stability”) (HepG2 CYP1A2; HepG2 CYP1A2, up to 2 h) was “formation of radiometabolites was observed”, the “Formation of second metabolite (M2)” value [1] was “did not lead to the second metabolite” and the “Metabolic turnover / stability” value (HepG2 CYP3A4) was “mainly intact radiotracer was found”. The “Increase of intact tracer amount with carrier addition” value (HepG2 CYP2C19; 1 h, CA versus without carrier addition) was 10 fold, the “Amount of intact tracer” value (HepG2 CYP2C19; 1 h, carrier-added (CA), 50 µM 1, radio-TLC) was 67.2% and the “Amount of intact tracer” value (HepG2 CYP2C19; 1 h, without carrier addition, 24 MBq/mL (460 nM), radio-TLC) was 6.6%. For the same compound, the “Intact tracer in supernatant” value (HepG2 CYP2C19; 1 h incubation, 2–4 MBq/mL (28–187 nM), radio-TLC) was 1.3% and the “Metabolic turnover / stability” value (HepG2 CYP2C19; HepG2 CYP2C19, up to 2 h, radio-TLC) was “formation of radiometabolites was observed”.
